Each structure is given as a SMILES string.

The values below come from patent US6841519B1, “Isoxazoline derivatives and herbicides containing the same as the active ingredient” (Kumiai Chemical Industry Co., Ltd., priority 1999, dated 2005).

Common to all, as to assay type: in vivo
Data set [1] has as its system Echinochloa oryzicola Vasing. (Eo). Put plainly: Test for herbicidal effect by paddy field soil treatment (Test Example 1). As to conditions: application amount (active ingredient) 100 g/10 a, examined at the 21st day from the treatment, index per Table 40. In short, it runs like this:
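Scored on a standard scale at day 21 in the greenhouse: herbicidal effect of wettable powder applied to flooded water (3 cm depth) at 100 g a.i./10 ares, one day after sowing Eo into puddled paddy soil.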

For data set [2], the system named is Echinochloa crus-galli (L.) Beauv. var. crusgall (Ec). In words: Test for herbicidal effect by upland field soil treatment (Test Example 2), Ec. In short, it runs like this: (§1)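 Pre-emergence soil treatment: wettable powder diluted in water and sprayed on soil just sown with Ec and Se seeds, delivering 100 g active ingredient per 10 ares in 100 liters per 10 ares. Herbicidal effect was rated against a fixed scale 21 days later, after greenhouse growth.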

Data set [3] relates to Setaria viridis (L.) Beauv. (Se). Put plainly: Test for herbicidal effect by upland field soil treatment (Test Example 2), Se. In short, it runs like this: as §1
Another data set has as its system rice (Or). Put plainly: Test for crop selectivity by paddy field soil treatment (Test Example 4), phytotoxicity to rice. Conditions: transplanted two-leaf stage rice, 100 g/10 a active ingredient, 21st day. The procedure:
(§2) [table] <Test Example 4> Test For Crop Selectivity By Paddy Field Soil Treatment A paddy field soil was filled in a plastic pot of 100 cm^2 and subjected to puddling. Seeds of Echinochloa oryzicola Vasing. (Eo) were sowed; two-leaf stage seedlings of rice (Or) were transplanted in a depth of 2 cm; and water was filled in a depth of 3 cm. Next day, wettable powders produced in accordance with the Formulation 1 were diluted with water and dropped on the water surface. The application amount of each wettable powder was 100 g per 10 ares in terms of the active ingredient. Then, breeding was made in a greenhouse. At the 21st day from the treatment, the phytotoxicity and herbicidal effect of each wettable powder were examined in accordance with the standard shown in Table 40.

Data set [4] deals with Echinochloa oryzicola Vasing. (Eo). Put plainly: Test for crop selectivity by paddy field soil treatment (Test Example 4), herbicidal effect on Eo. As to conditions: 100 g/10 a active ingredient, 21st day. The procedure: as §2
The mark [5] stands for this setting: application amount (active ingredient) 100 g/10 a, examined at the 21st day from the treatment, index per Table 40.
[6] abbreviates: 100 g/10 a active ingredient, examined at 21st day.

As to `CCC1(C)CC(S(=O)(=O)Cc2cccc(F)c2)=NO1` (stereo not shown) [Compound 1-190], the “Herbicidal effect to Eo” value in data set [1] and in data set [4] was 5 (A herbicidal effect or phytotoxicity of 90% or more) throughout. For the same compound, the “Herbicidal effect to Ec” value in data set [2] (setting [5]) is given as 5 (A herbicidal effect or phytotoxicity of 90% or more). The “Herbicidal effect to Se” value in data set [3] (setting [5]) is recorded as 5 (A herbicidal effect or phytotoxicity of 90% or more). In addition, the “Phytotoxicity to Or” value in the data set on rice (Or) was 1 (A herbicidal effect or phytotoxicity of 10% to less than 30%).
For `CCC1(C)CC(SCc2c(F)cccc2F)=NO1` (stereo not shown) [Compound 1-198], the “Herbicidal effect to Eo” value in data set [1] and in data set [4] was 5 (A herbicidal effect or phytotoxicity of 90% or more) throughout. The “Herbicidal effect to Ec” value in data set [2] (setting [5]) was 4 (A herbicidal effect or phytotoxicity of 70% to less than 90%). Also, the “Herbicidal effect to Se” value in data set [3] (setting [5]) is 5 (A herbicidal effect or phytotoxicity of 90% or more). Moreover, the “Phytotoxicity to Or” value in the data set on rice (Or) was 1 (A herbicidal effect or phytotoxicity of 10% to less than 30%).
As for `CCC1(C)CC(S(=O)(=O)Cc2ccccc2OC)=NO1` (stereo not shown) [Compound 1-228], the “Herbicidal effect to Eo” value in data set [1] and in data set [4] was 5 (A herbicidal effect or phytotoxicity of 90% or more) each time. Further, the “Herbicidal effect to Ec” value in data set [2] (setting [5]) is on record as 5 (A herbicidal effect or phytotoxicity of 90% or more). Moreover, the “Herbicidal effect to Se” value in data set [3] (setting [5]) was 5 (A herbicidal effect or phytotoxicity of 90% or more). Also, the “Phytotoxicity to Or” value with rice (Or) is 1 (A herbicidal effect or phytotoxicity of 10% to less than 30%).
In the case of `CCC1(C)CC(S(=O)(=O)Cc2cccc(C#N)c2)=NO1` (stereo not shown) [Compound 1-328], the “Herbicidal effect to Eo” value in data set [1] and in data set [4] was 5 (A herbicidal effect or phytotoxicity of 90% or more) in each case. Further, the “Herbicidal effect to Ec” value in data set [2] (setting [5]) is on record as 4 (A herbicidal effect or phytotoxicity of 70% to less than 90%). Besides, the “Herbicidal effect to Se” value in data set [3] (setting [5]) is on record as 4 (A herbicidal effect or phytotoxicity of 70% to less than 90%). Moreover, in the data set with rice (Or), the “Phytotoxicity to Or” value was 0 (A herbicidal effect or phytotoxicity of 0% to less than 10%).
Consider `CCC1(C)CC(S(=O)(=O)Cc2cccc([N+](=O)[O-])c2)=NO1` (stereo not shown) [Compound 1-331], for which the “Herbicidal effect to Eo” value in data set [1] and in data set [4] was 5 (A herbicidal effect or phytotoxicity of 90% or more) each time. In addition, the “Herbicidal effect to Ec” value in data set [2] (setting [5]) is recorded as 5 (A herbicidal effect or phytotoxicity of 90% or more). Moreover, the “Herbicidal effect to Se” value in data set [3] (setting [5]) is given as 5 (A herbicidal effect or phytotoxicity of 90% or more). Besides, the “Phytotoxicity to Or” value in the data set on rice (Or) is on record as 0 (A herbicidal effect or phytotoxicity of 0% to less than 10%).
With `O=S(=O)(Cc1c(F)cccc1F)C1=NOC2CCCCCC12` (stereo not shown) [Compound 1-518], the “Herbicidal effect to Ec” value in data set [2] (setting [6]) is given as 5 (A herbicidal effect or phytotoxicity of 90% or more). In data set [3] (setting [6]), the “Herbicidal effect to Se” value is 4 (A herbicidal effect or phytotoxicity of 70% to less than 90%). Further, the “Phytotoxicity to Or” value in the data set with rice (Or) is reported as 1 (A herbicidal effect or phytotoxicity of 10% to less than 30%). Further, in data set [4], the “Herbicidal effect to Eo” value was 5 (A herbicidal effect or phytotoxicity of 90% or more).
Regarding `CC1(C)CC(S(=O)(=O)Cc2ccccc2C(=O)OC2CCCC2)=NO1` [Compound 1-601], the “Herbicidal effect to Eo” value in data set [1] and in data set [4] was 5 (A herbicidal effect or phytotoxicity of 90% or more) throughout. For the same compound, the “Herbicidal effect to Ec” value in data set [2] (setting [6]) is given as 5 (A herbicidal effect or phytotoxicity of 90% or more). Further, in the data set with rice (Or), the “Phytotoxicity to Or” value is listed as 1 (A herbicidal effect or phytotoxicity of 10% to less than 30%).
On to `CCCCOC(=O)c1cccc(Cl)c1CS(=O)(=O)C1=NOC(C)(C)C1` [Compound 1-622], for which the “Herbicidal effect to Eo” value in data set [1] and in data set [4] was 5 (A herbicidal effect or phytotoxicity of 90% or more) throughout. Also, the “Herbicidal effect to Ec” value in data set [2] (setting [6]) is listed as 5 (A herbicidal effect or phytotoxicity of 90% or more). For the same compound, the “Phytotoxicity to Or” value in the data set on rice (Or) was 1 (A herbicidal effect or phytotoxicity of 10% to less than 30%).
